# According to ChEMBL document CHEMBL1150500, “Epoxidation of 6,7- and 10,11-oxidosqualenes by the squalene epoxidase present in rat liver microsomes” (Bioorg Med Chem Lett, 1993):
# Biological target: Squalene monooxygenase (Rattus norvegicus, UniProt P52020)
# Assay: Compound was tested for its inhibitory activity against squalene epoxidase from rat liver microsomes
# Chain of Squalene monooxygenase (P52020 whole entry): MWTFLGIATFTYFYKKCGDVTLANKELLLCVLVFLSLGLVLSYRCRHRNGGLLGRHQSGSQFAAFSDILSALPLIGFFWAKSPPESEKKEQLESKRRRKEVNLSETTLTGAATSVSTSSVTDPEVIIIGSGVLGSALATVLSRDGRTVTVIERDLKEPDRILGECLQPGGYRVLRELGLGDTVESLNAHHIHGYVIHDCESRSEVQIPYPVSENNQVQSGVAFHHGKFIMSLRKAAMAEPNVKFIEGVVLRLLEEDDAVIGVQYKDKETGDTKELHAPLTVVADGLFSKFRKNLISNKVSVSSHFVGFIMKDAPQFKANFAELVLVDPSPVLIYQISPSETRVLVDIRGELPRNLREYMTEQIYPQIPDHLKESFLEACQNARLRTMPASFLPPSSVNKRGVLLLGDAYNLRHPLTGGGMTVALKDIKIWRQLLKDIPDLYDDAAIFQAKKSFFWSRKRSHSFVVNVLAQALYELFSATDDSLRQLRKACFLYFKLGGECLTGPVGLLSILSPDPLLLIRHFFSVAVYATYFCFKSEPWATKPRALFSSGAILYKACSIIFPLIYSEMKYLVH
row,IC50 [µM],Compound
1,13,CC(C)=CCC/C(C)=C/CC/C(C)=C/CCC1OC1(C)CC/C=C(\C)CC[C@@H]1OC1(C)C (some centres undefined)
2,31.8,CC(C)=CCC/C(C)=C/CC/C(C)=C/CC/C=C(\C)CCC1OC1(C)CCC=C(C)C (centres undefined)
3,50.9,CC(C)=CCC/C(C)=C/CC/C(C)=C/CCC1OC1(C)CC/C=C(\C)CCC=C(C)C (centres undefined)
4,0.11,CC(C)=CCCC1(C)OC1CC/C(C)=C/CC/C=C(\C)CC/C=C(\C)CC[C@@H]1OC1(C)C (some centres undefined)
